# Columns and labels:
# AAK1 [1] = biological target: T1, AAK1 (Homo sapiens, UniProt Q2M2I8); assay: HEK281 cell-based assay (phospho-mu2 Western blot in transfected HEK293F cells); conditions: 3 hours incubation, read-out: CBA IC50
# T1 construct: HA; expressed in transfected cells; host or cells: HEK293F
# How it was run: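 After 3 hours at 37° C. with compound (five 3-fold-spaced concentrations, DMEM+0.5% FBS), transiently transfected HEK293F cells expressing full-length human AAK1 and Flag-tagged mu2 were lysed. mu2 phosphorylation was read by anti-phospho-mu2 immunoblot, normalized against total mu2 by anti-Flag blot.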
# AAK1 [2] = biological target: T1, AAK1; assay: P81 filter plate assay; assay type: biochemical; conditions: full-length human AAK1, Mu2 substrate
# T1 sequence (Q2M2I8 1-863 isoform Q2M2I8-2): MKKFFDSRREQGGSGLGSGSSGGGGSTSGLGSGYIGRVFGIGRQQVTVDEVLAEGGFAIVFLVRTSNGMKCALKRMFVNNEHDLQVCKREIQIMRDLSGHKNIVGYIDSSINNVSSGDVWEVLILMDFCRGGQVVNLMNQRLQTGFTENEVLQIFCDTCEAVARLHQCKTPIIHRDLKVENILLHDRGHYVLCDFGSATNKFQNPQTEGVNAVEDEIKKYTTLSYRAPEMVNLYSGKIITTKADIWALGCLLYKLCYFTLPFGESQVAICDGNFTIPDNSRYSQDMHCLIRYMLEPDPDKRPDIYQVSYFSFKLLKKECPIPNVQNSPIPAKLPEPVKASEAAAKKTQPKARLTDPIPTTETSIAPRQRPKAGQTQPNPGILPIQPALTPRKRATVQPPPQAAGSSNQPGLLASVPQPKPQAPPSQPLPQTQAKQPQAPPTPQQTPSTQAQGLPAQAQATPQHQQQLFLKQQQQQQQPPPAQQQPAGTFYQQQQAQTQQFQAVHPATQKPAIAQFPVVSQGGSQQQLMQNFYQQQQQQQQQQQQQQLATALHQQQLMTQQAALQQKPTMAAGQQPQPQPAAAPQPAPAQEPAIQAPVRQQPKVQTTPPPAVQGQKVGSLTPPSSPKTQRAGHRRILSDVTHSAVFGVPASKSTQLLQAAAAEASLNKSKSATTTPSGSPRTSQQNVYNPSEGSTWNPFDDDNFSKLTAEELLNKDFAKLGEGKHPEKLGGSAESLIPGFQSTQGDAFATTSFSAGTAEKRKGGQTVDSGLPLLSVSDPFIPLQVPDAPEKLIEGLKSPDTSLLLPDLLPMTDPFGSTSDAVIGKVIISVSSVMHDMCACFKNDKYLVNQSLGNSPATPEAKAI
Compound,IC50 (AAK1 [1]) [nM],IC50 (AAK1 [2]) [nM]
"CC(=O)c1cnc2ccc(N3CCN(C(=O)[C@@H](N)C(C)C)CC3)nn12 [(S)-1-(4-(3-acetylimidazo[1,2-b]pyridazin-6-yl)piperazin-1-yl)-2-amino-3-methylbutan-1-one]",≤ 100,≤ 10
"Cc1cccc(-c2cnc3ccc(NC[C@@H]4CCCN4C(=O)CC(C)C)nn23)c1 [(S)-3-methyl-1-(2-(((3-(m-tolyl)imidazo[1,2-b]pyridazin-6-yl)amino)methyl)pyrrolidin-1-yl)butan-1-one]",≤ 1000,≤ 10
"COc1ncccc1-c1cnc2ccc(NC[C@@H]3CCC(=O)N3CCC(C)(C)C)nn12 [(S)-1-(3,3-dimethylbutyl)-5-(((3-(2-methoxypyridin-3-yl)imidazo[1,2-b]pyridazin-6-yl)amino)methyl)pyrrolidin-2-one]",≤ 10,≤ 10
"COc1ncccc1-c1cnc2ccc(N3CCN(C(=O)N4CCCC4)CC3)nn12 [(4-(3-(2-methoxypyridin-3-yl)imidazo[1,2-b]pyridazin-6-yl)piperazin-1-yl)(pyrrolidin-1-yl)methanone]",≤ 100,≤ 10
"O=C(OC1CCCC1)N1CCC[C@H]1CNc1ccc2ncc(-c3ccncc3)n2n1 [(S)-cyclopentyl 2-(((3-(pyridin-4-yl)imidazo[1,2-b]pyridazin-6-yl)amino)methyl)pyrrolidine-1-carboxylate]",≤ 10,≤ 10
"CC(C)CCN1C(=O)CC[C@H]1CNc1ccc2ncc(-c3ccc(CN)cc3)n2n1 [(S)-5-(((3-(4-(aminomethyl)phenyl)imidazo[1,2-b]pyridazin-6-yl)amino)methyl)-1-isopentylpyrrolidin-2-one]",≤ 100,≤ 10
"CC(C)CC(=O)N1CCC[C@H]1CNc1ccc2ncc(-c3cccc(F)c3)n2n1 [(S)-1-(2-(((3-(3-fluorophenyl)imidazo[1,2-b]pyridazin-6-yl)amino)methyl)pyrrolidin-1-yl)-3-methylbutan-1-one]",≤ 10,≤ 10
"CCOC(=O)N(C)[C@H]1CCN(c2ccc3ncc(-c4cc(C)cnc4OC)n3n2)C1 [(S)-ethyl (1-(3-(2-methoxy-5-methylpyridin-3-yl)imidazo[1,2-b]pyridazin-6-yl)pyrrolidin-3-yl)(methyl)carbamate]",≤ 100,≤ 10
"CC(C)CC(=O)N1CCC[C@H]1CNc1ccc2ncc(-c3ccccc3)n2n1 [(S)-3-methyl-1-(2-(((3-phenylimidazo[1,2-b]pyridazin-6-yl)amino)methyl)pyrrolidin-1-yl)butan-1-one]",≤ 100,≤ 10
"CC(C)OC(=O)N(C)[C@H]1CCN(c2ccc3ncc(-c4cccnc4)n3n2)C1 [(S)-isopropyl methyl(1-(3-(pyridin-3-yl)imidazo[1,2-b]pyridazin-6-yl)pyrrolidin-3-yl)carbamate]",≤ 100,≤ 10
"CC(C)(C)NC(=O)N1CCC[C@H]1CNc1ccc2ncc(Br)n2n1 [(S)-2-(((3-bromoimidazo[1,2-b]pyridazin-6-yl)amino)methyl)-N-(tert-butyl)pyrrolidine-1-carboxamide]",≤ 100,≤ 10
"O=C(OC1CCC1)N1CCC[C@H]1CNc1ccc2ncc(-c3ccncc3)n2n1 [(S)-cyclobutyl 2-(((3-(pyridin-4-yl)imidazo[1,2-b]pyridazin-6-yl)amino)methyl)pyrrolidine-1-carboxylate]",≤ 10,≤ 10
"O=C(CC(F)(F)F)N1CCC[C@H]1CNc1ccc2ncc(-c3ccccc3)n2n1 [(S)-3,3,3-trifluoro-1-(2-(((3-phenylimidazo[1,2-b]pyridazin-6-yl)amino)methyl)pyrrolidin-1-yl)propan-1-one]",≤ 10,≤ 10
"CC(C)(C)CCN1C(=O)CC[C@H]1CNc1ccc2ncc(-c3ccc(CN)cc3)n2n1 [(S)-5-(((3-(4-(aminomethyl)phenyl)imidazo[1,2-b]pyridazin-6-yl)amino)methyl)-1-(3,3-dimethylbutyl)pyrrolidin-2-one]",≤ 100,≤ 10
"CC(C)(C)CC(=O)N1CCC[C@H]1CNc1ccc2ncc(-c3ccncc3)n2n1 [(S)-3,3-dimethyl-1-(2-(((3-(pyridin-4-yl)imidazo[1,2-b]pyridazin-6-yl)amino)methyl)pyrrolidin-1-yl)butan-1-one]",≤ 100,≤ 10
"NCc1ccc(-c2cnc3ccc(NCC4CCCN4CC(F)(F)F)nn23)cc1 (stereo not shown) [3-(4-(aminomethyl)phenyl)-N-((1-(2,2,2-trifluoroethyl)pyrrolidin-2-yl)methyl)imidazo[1,2-b]pyridazin-6-amine]",≤ 100,≤ 10
"CNC(=O)c1cnc2ccc(NC[C@@H]3CCCN3C(=O)OC(C)(C)C)nn12 [(S)-tert-butyl 2-(((3-(methylcarbamoyl)imidazo[1,2-b]pyridazin-6-yl)amino)methyl)pyrrolidine-1-carboxylate]",≤ 100,≤ 10
"CC(C)(C)CCN1C(=O)CC[C@H]1CNc1ccc2ncc(Br)n2n1 [(S)-5-(((3-bromoimidazo[1,2-b]pyridazin-6-yl)amino)methyl)-1-(3,3-dimethylbutyl)pyrrolidin-2-one]",≤ 100,≤ 10
"NCc1ccc(-c2cnc3ccc(NC[C@@H]4CCCN4C(=O)OC4CCCC4)nn23)cc1 [(S)-cyclopentyl 2-(((3-(4-(aminomethyl)phenyl)imidazo[1,2-b]pyridazin-6-yl)amino)methyl)pyrrolidine-1-carboxylate]",≤ 10,≤ 10
"COc1cc(-c2cnc3ccc(N4CC[C@H](N(C)C(=O)OC(C)C)C4)nn23)c(OC)nn1 [(S)-isopropyl (1-(3-(3,6-dimethoxypyridazin-4-yl)imidazo[1,2-b]pyridazin-6-yl)pyrrolidin-3-yl)(methyl)carbamate]",≤ 100,≤ 10

# The next lines start with the values.
IC50 (AAK1 [1]) [nM],IC50 (AAK1 [2]) [nM],Compound
≤ 100,≤ 10,"CC(C)(C)NC(=O)N1CCN(c2ccc3ncc(-c4ccccc4)n3n2)CC1 [N-(tert-Butyl)-4-(3-phenylimidazo[1,2-b]pyridazin-6-yl)piperazine-1-carboxamide]"
≤ 10,≤ 10,"COc1cc(C)c(F)cc1-c1cnc2ccc(N3CCN(C(=O)OC(C)C)CC3)nn12 [isopropyl 4-(3-(5-fluoro-2-methoxy-4-methylphenyl)imidazo[1,2-b]pyridazin-6-yl)piperazine-1-carboxylate]"
≤ 10,≤ 10,"COc1ncc(F)cc1-c1cnc2ccc(N3CCN(C(=O)OC(C)C)CC3)nn12 [isopropyl 4-(3-(5-fluoro-2-methoxypyridin-3-yl)imidazo[1,2-b]pyridazin-6-yl)piperazine-1-carboxylate]"
≤ 100,≤ 100,"CN(C(=O)OC(C)(C)C)C1CCN(c2ccc3ncc(-c4ccccc4)n3n2)C1 (stereo not shown) [tert-butyl methyl(1-(3-phenylimidazo[1,2-b]pyridazin-6-yl)pyrrolidin-3-yl)carbamate]"
≤ 100,≤ 10,"CC(C)OC(=O)N1CCN(c2ccc3ncc(-c4ccccc4OC(F)F)n3n2)CC1 [isopropyl 4-(3-(2-(difluoromethoxy)phenyl)imidazo[1,2-b]pyridazin-6-yl)piperazine-1-carboxylate]"
≤ 10,≤ 10,"CC(C)OC(=O)N1CCN(c2ccc3ncc(-c4ccc(CN)cc4)n3n2)CC1 [isopropyl 4-(3-(4-(aminomethyl)phenyl)imidazo[1,2-b]pyridazin-6-yl)piperazine-1-carboxylate]"
≤ 100,≤ 10,"CC(C)OC(=O)N1CCN(c2ccc3ncc(-c4ccc[nH]c4=O)n3n2)CC1 [isopropyl 4-(3-(2-oxo-1,2-dihydropyridin-3-yl)imidazo[1,2-b]pyridazin-6-yl)piperazine-1-carboxylate]"
≤ 100,≤ 10,"c1ccc(-c2cnc3ccc(NCCOC4CCCC4)nn23)nc1 [N-(2-(cyclopentyloxy)ethyl)-3-(pyridin-2-yl)imidazo[1,2-b]pyridazin-6-amine]"
≤ 100,≤ 10,"CC(C)OC(=O)N1CCN(c2ccc3ncc(-c4cccnc4OC(F)F)n3n2)CC1 [isopropyl 4-(3-(2-(difluoromethoxy)pyridin-3-yl)imidazo[1,2-b]pyridazin-6-yl)piperazine-1-carboxylate]"
≤ 10,≤ 10,"COc1ccc(F)cc1-c1cnc2ccc(N3CCN(C(=O)OC(C)C)CC3)nn12 [isopropyl 4-(3-(5-fluoro-2-methoxyphenyl)imidazo[1,2-b]pyridazin-6-yl)piperazine-1-carboxylate]"
≤ 100,≤ 10,"COc1cncc(-c2cnc3ccc(NCCOC4CCCC4)nn23)c1 [N-(2-(cyclopentyloxy)ethyl)-3-(5-methoxypyridin-3-yl)imidazo[1,2-b]pyridazin-6-amine]"
≤ 100,≤ 10,"COc1ncccc1-c1cnc2ccc(N3CCC(N(C)C(=O)OC(C)(C)C)C3)nn12 (stereo not shown) [tert-butyl (1-(3-(2-methoxypyridin-3-yl)imidazo[1,2-b]pyridazin-6-yl)pyrrolidin-3-yl)(methyl)carbamate]"
≤ 100,≤ 10,"COc1ncccc1-c1cnc2ccc(N3CC[C@H](N(C)C(=O)OC(C)(C)C)C3)nn12 [{(S)-1-[3-(2-Methoxy-pyridin-3-yl)-imidazo[1,2-b]pyridazin-6-yl]-pyrolidin-3-yl}-methyl-carbamic acid tert-butyl ester]"
≤ 10,≤ 10,"CC(C)(C)OC(=O)N1CCC[C@H]1CNc1ccc2ncc(-c3ccccc3)n2n1 [(S)-tert-butyl 2-(((3-phenylimidazo[1,2-b]pyridazin-6-yl)amino)methyl)pyrrolidine-1-carboxylate]"
≤ 100,≤ 10,"COc1ccccc1-c1cnc2ccc(N3CC[C@H](N(C)C(=O)N4CCCC4)C3)nn12 [(S)—N-(1-(3-(2-methoxyphenyl)imidazo[1,2-b]pyridazin-6-yl)pyrrolidin-3-yl)-N-methylpyrrolidine-1-carboxamide]"

# From patent US8969565B2, “Imidazo[1,2-b]pyridazine-based compounds, compositions comprising them, and methods of their use” (Lexicon Pharmaceuticals, Inc., priority 2012, dated 2015)
